The values below come from ChEMBL document CHEMBL5532738, “Chiral Me-2-arachidonoyl Glycerols: The First Potent Endocannabinoid Glyceride Templates with Stability to COX-2” (ACS Med Chem Lett, 2024).

Holding throughout (format): functional, cell-based
One assay deals with Cannabinoid receptor 1 (Rattus norvegicus, UniProt P20272). Nature of the assay: Agonist activity at rat CB1 receptor stably expressed in HEK293 cells assessed as inhibition of forskolin-stimulated cAMP accumulation incubated for 5 mins by Lance Ultra cAMP assay. A general note: Cyclic AMP is a second messenger, typically raised through Gs and lowered through Gi signalling.
Cannabinoid receptor 1, sequence (P20272 whole entry): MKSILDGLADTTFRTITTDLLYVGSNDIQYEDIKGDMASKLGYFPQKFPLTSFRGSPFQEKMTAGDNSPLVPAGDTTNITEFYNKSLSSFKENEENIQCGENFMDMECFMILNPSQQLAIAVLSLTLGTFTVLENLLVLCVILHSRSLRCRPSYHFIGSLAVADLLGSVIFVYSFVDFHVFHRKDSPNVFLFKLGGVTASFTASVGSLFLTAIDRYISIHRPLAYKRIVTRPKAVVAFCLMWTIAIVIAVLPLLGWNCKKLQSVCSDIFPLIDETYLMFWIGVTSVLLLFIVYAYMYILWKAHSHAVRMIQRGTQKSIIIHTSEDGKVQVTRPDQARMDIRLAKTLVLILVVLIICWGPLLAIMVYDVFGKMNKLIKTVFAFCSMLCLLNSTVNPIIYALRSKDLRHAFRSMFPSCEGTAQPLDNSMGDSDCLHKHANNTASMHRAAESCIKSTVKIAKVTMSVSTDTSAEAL
Assay [1] has as its target Cannabinoid receptor 1 (Rattus norvegicus) (UniProt P20272). Nature of the assay: Agonist activity at rat CB1 receptor stably expressed in HEK293 cells assessed as inhibition of forskolin-stimulated cAMP accumulation incubated for 5 mins by Lance Ultra cAMP assay relative to control. The settings on record: filed as agonist.
For another assay, the target named is Cannabinoid receptor 2 (Mus musculus, UniProt P47936). Nature of the assay: Agonist activity at mouse CB2 receptor stably expressed in HEK293 cells assessed as inhibition of forskolin-stimulated cAMP accumulation incubated for 5 mins by Lance Ultra cAMP assay.
Cannabinoid receptor 2, sequence (P47936 whole entry): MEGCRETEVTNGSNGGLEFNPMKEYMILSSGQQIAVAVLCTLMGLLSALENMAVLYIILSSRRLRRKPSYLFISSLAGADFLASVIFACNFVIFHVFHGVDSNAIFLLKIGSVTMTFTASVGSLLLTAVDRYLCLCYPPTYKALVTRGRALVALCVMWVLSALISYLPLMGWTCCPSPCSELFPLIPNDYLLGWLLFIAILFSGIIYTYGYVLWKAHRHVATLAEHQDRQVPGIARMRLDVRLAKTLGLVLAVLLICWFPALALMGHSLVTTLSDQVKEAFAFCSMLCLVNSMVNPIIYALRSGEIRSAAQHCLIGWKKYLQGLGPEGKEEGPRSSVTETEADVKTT
Assay [2] concerns the target Cannabinoid receptor 2 (Mus musculus) (UniProt P47936). Nature of the assay: Agonist activity at mouse CB2 receptor stably expressed in HEK293 cells assessed as inhibition of forskolin-stimulated cAMP accumulation incubated for 5 mins by Lance Ultra cAMP assay relative to control.

Molecules are shown by their SMILES.

As a reminder, the EC50 is the concentration that produces a half-maximal response. Broadly, the Emax is the greatest response seen or fitted, relative to the assay's reference.

Cannabinoid receptor 1 (Rattus norvegicus), sequence (P20272 whole entry): as the sequence (P20272 whole entry) above
Cannabinoid receptor 2 (Mus musculus), sequence (P47936 whole entry): as the sequence (P47936 whole entry) above

As to `CCCCC/C=C\[C@@H](C)/C=C\C/C=C\C/C=C\CCCC(=O)OC(CO)CO`, the values for the concentration for a half-maximal effect (EC50) at Cannabinoid receptor 1 and at Cannabinoid receptor 2 were 0.007 µM and 0.05 µM, respectively. In addition, the Emax in assay [1] came to 51.6%; in assay [2] (filed as agonist) it was 42.8%.

On to `CCCCC/C=C\C/C=C\C/C=C\C/C=C\CCCC(=O)OC(CO)CO` [2-ARACHIDONOYLGLYCEROL], for which the Emax is 47.7% in assay [1] and 35.2% in assay [2]. In addition, the EC50 on Cannabinoid receptor 2 was 0.018 µM.

On to `CCCCC/C=C\C/C=C\C/C=C\[C@@H](C)/C=C\CCCC(=O)OC(CO)CO`, for which the EC50 at Cannabinoid receptor 1 came to 0.0346 µM. Further, the maximal response (Emax) is 74.8% in assay [1] and less than 1% in assay [2].

In the case of `CCCCCCC(C)(C)c1ccc([C@@H]2C[C@H](O)CC[C@H]2CCCO)c(O)c1` [CP-55940], the figures for the Emax in assay [1] and in assay [2] (filed as agonist) were 67.1% and 54.4%, respectively. Also, the EC50 on Cannabinoid receptor 2 is 0.007 µM.

With `CCCCC/C=C\[C@H](C)/C=C\C/C=C\C/C=C\CCCC(=O)OC(CO)CO`, the EC50 on Cannabinoid receptor 1 was found to be 0.017 µM; on Cannabinoid receptor 2, 0.053 µM. In addition, the figures for the Emax in assay [1] and in assay [2] (filed as agonist) were 51.2% and 50.1%, respectively.

In the case of `CCCCC/C=C\C/C=C\C/C=C\[C@H](C)/C=C\CCCC(=O)OC(CO)CO`, the concentration for a half-maximal effect (EC50) at Cannabinoid receptor 1 is 0.0231 µM; at Cannabinoid receptor 2 it was 0.006 µM. For the same molecule, the Emax in assay [1] is 48.7%; in assay [2], 24.6%.
